In patent publication US11168131B2, “Antibody molecule-drug conjugates and uses thereof” (priority 2015, dated 2021):

Key:
E. coli = test: Minimal inhibitory concentration (MIC) assay, broth microdilution; format: cell-based, Escherichia coli; details: for MIC (mg/ml) Eco 43745: in the presence of PBS
K. pneumoniae = test: as above; format: cell-based, Klebsiella pneumoniae; details: in the presence of PBS
P. aeruginosa [1] = test: as above; format: cell-based, Pseudomonas aeruginosa; details: for MIC (mg/ml) Pae 27853 / MIC (mg/ml) Pae 39324: in the presence of PBS
P. aeruginosa [2] = test: MIC in the presence of 50% human serum (hsMIC); format: cell-based, Pseudomonas aeruginosa; details: for hsMIC/MIC: Pae 27853, ratio of hsMIC to MIC; for 50% hsMIC (μg/ml) Pae 27853: in the presence of 50% human serum
Experimental: In an embodiment, the MIC is determined in the presence of phosphate-buffered saline (PBS). In an embodiment, the MIC or hsMIC is determined on per ADC basis. In an embodiment, the MIC or hsMIC is determined on per payload or antimicrobial peptide basis.

S. aureus = test: Minimal inhibitory concentration (MIC) assay, broth microdilution; format: cell-based, Staphylococcus aureus; details: in the presence of PBS
[3] = system: multiple drug resistant (MDR) strains of P. aeruginosa; test: Microbial killing assay against multiple drug resistant strains; format: cell-based, Pseudomonas aeruginosa; details: assay as in Example 15; for 50% Killing Activity BAA-2108: MDR P. aeruginosa strain BAA-2108; for 50% Killing Activity BAA-2110: MDR P. aeruginosa strain BAA-2110; for 50% Killing Activity BAA-2114: MDR P. aeruginosa strain BAA-2114; for 50% Killing Activity Pae 27853: P. aeruginosa strain 27853
Experimental: The microbial killing assay was performed as follows. Bacterial cells were grown aerobically overnight on agar plates at 37° C. Overnight plates were used to seed 30 ml cultures of growth media in 250 ml vented flasks. Cultures were grown aerobically at 37° C., shaking at 150 rpm. Growth was monitored at A600 […] and bacterial cells were harvested at mid-log growth. Ten ml of culture was pelleted at 4000×G for 10 minutes and washed one time with PBS plus 1% BSA before re-suspending in 2 ml PBS+BSA. […] Cultures were diluted to 1×10^4 cells/ml in PBS plus BSA. Test articles were diluted in PBS+1% BSA and 50 μl per concentration tested was loaded into a 96 well polypropylene microtiter plate. Fifty μl of diluted culture was added to all test wells as well as no compound control wells. Plates were shaken and incubated at 37° C., 90 minutes, static. Ten μl from each assay well was plated onto agar plates and incubated at 37° C. overnight. Percent killing was determined by the CFU for test wells compared to the CFU for no compound control wells.

Substance | MIC (mg/ml) Eco 43745 (E. coli) [mg/mL] | MIC (mg/ml) Pae 27853 (P. aeruginosa [1]) [mg/mL] | MIC (mg/ml) Pae 39324 (P. aeruginosa [1]) [mg/mL] | hsMIC/MIC (P. aeruginosa [2]) | 50% hsMIC (μg/ml) Pae 27853 (P. aeruginosa [2]) [µg/mL] | also measured
GGGRGLRRLGRKIAHGVKKYGPTVLRIIKKYG [Peptide P294] | 0.002 | – | – | – | – | MIC (mg/ml) Kpn 700603 (K. pneumoniae): 0.008 mg/mL
GGGGLRKRLRKFRNKIKEKLKKIGQKIQGLLPKLA [Peptide P271] | 0.004 | – | – | – | – | –
RLGNFFRKAKKKIGRGLKKIGQKIKDFLGNLVPRTES [peptide 128] | – | – | – | – | – | MIC μg/ml Pae 27853 (P. aeruginosa [1]): 8 µg/mL
GGGKRFKKFFKKLKNSVKKRAKKFFKKPRVIGVSIPF [Peptide P296] | 0.004 | 4 | 2 | 0.25 | 1 | –
GGGLLGDFFRKSKEKIGKEFKRIVQRIKDFLRNLVPRTES [Peptide P265] | 0.008 | – | – | >4 | >128 | MIC (mg/ml) Kpn 700603 (K. pneumoniae): >0.128 mg/mL
GLRKRLRKFRNKIKEKLKKIGQKIQGLLPKLA [Peptide 33] | – | – | – | – | – | MIC μg/ml Pae 27853 (P. aeruginosa [1]): 8 µg/mL; MIC μg/ml Eco 25922 (E. coli): 8 µg/mL
GGGGLRRLGRKIAHGIKKYGPTILRIIRIAG [Peptide P293] | 0.004 | 8 | 2 | – | – | MIC (mg/ml) Kpn 700603 (K. pneumoniae): 0.004 mg/mL
GAFGNFLKGVAKKAGLKILSIAQCKLFGTC [peptide 70] | – | – | – | – | – | MIC μg/ml Pae 27853 (P. aeruginosa [1]): 8 µg/mL; MIC μg/ml Eco 25922 (E. coli): 4 µg/mL
GGG-D-Dab-cyclic(L-Dab-L-Dab-D-Leu-L-Phe-L-Dab-L-Dab-L-Leu) [GGG-Octapeptin] | – | 2 | 2 | 1 | 2 | MIC (mg/ml) Sau 29213 (S. aureus): >0.128 mg/mL; MIC (mg/ml) Kpn 700603 (K. pneumoniae): >0.128 mg/mL
GIGKFLKKAKKFGKAFVKILKK [peptide 109] | – | – | – | – | – | MIC μg/ml Pae 27853 (P. aeruginosa [1]): 8 µg/mL; MIC μg/ml Eco 25922 (E. coli): 4 µg/mL
Ceftazadime [reference compound] | – | 1 | 1 | 1 | 1 | MIC (mg/ml) Sau 29213 (S. aureus): 0.004 mg/mL
GGGKFFRKLKKSVKKRAKEFFKKPRVIGVSIPF [Peptide P297] | 0.002 | 4 | 2 | 2 | 8 | 50% Killing Activity BAA-2108 [3]: 0.28 µg/mL; 50% Killing Activity BAA-2110 [3]: 0.28 µg/mL; 50% Killing Activity BAA-2114 [3]: 0.07 µg/mL; 50% Killing Activity Pae 27853 [3]: 0.04 µg/mL
GIGKFLKKAKKFGKAFVKILKKGGGGSGGGGS [peptide 24] | – | – | – | – | – | MIC μg/ml Pae 27853 (P. aeruginosa [1]): 8 µg/mL
GGGGRFKRFRKKFKKLFKKLSPVIPLLHLG [Peptide P295] | – | 4 | 4 | 0.5 | 2 | 50% Killing Activity BAA-2108 [3]: 0.6 µg/mL; 50% Killing Activity BAA-2110 [3]: 0.6 µg/mL; 50% Killing Activity BAA-2114 [3]: 0.14 µg/mL; 50% Killing Activity Pae 27853 [3]: 0.3 µg/mL
GGGGSGGGGSGIGKFLKKAKKFGKAFVKILKK [peptide 23] | – | – | – | – | – | MIC μg/ml Eco 25922 (E. coli): 8 µg/mL
GGGGIGKFLKKAKKFGKAFVKILKK [Peptide P261] | 0.004 | – | – | – | – | –
(MAL)-(EG3)-GIGKFLKKAKKFGKAFVKILKK [peptide 21] | – | – | – | – | – | MIC μg/ml Eco 25922 (E. coli): 8 µg/mL
